ChEMBL document CHEMBL1201862, “PubChem BioAssay data set” (2004)
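Cultured in 96-well plates, cells were exposed to test compound for 48 hours across five concentrations. GI50 = concentration required for 50% inhibition of growth.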 Activity calls are given as the source filed them. No stated cut-off is given here; in the data, active = GI50 up to about 1.1 µM and inactive = higher.

Assays:
Experiment in all cases: NCI tumour cell line growth inhibition, 48 h
SK-MEL-2 = system: SK-MEL-2
SNB-75 = system: SNB-75
EKVX = system: EKVX
NCI-H226 = system: NCI-H226
MDA-MB-231 = system: MDA-MB-231
SF-268 = system: SF-268
OVCAR-5 = system: OVCAR-5
SK-MEL-5 = system: SK-MEL-5
SW-620 = system: SW-620
BT-549 = system: BT-549
TK-10 = system: TK-10
MDA-MB-435 = system: MDA-MB-435
Hs-578T = system: Hs-578T
RPMI-8226 = system: RPMI-8226
HT-29 = system: HT-29
HCC 2998 = system: HCC 2998
LOX IMVI = system: LOX IMVI
NCI-H460 = system: NCI-H460
HL-60 = system: HL-60

Measured: GI50

O=C1/C(=C/c2ccccc2)CCCC1CN1CCCCC1 (stereo not given)
inactive: SK-MEL-2 4.56 µM | SNB-75 7.91 µM | EKVX 15.1 µM | NCI-H226 3.45 µM | MDA-MB-231 2 µM | SF-268 1.78 µM | OVCAR-5 18.6 µM | SK-MEL-5 4.31 µM | SW-620 1.33 µM | BT-549 2.95 µM | TK-10 2.59 µM | MDA-MB-435 2 µM | Hs-578T 2.94 µM | RPMI-8226 > 100 µM | HT-29 1.58 µM | HCC 2998 15.6 µM | LOX IMVI 1.65 µM | NCI-H460 6.58 µM

O=C(COC(c1ccc(F)cc1)c1ccc(F)cc1)N1CCN(CCCc2ccccc2)CC1
inactive: SK-MEL-2 3.87 µM | EKVX 4.44 µM | NCI-H226 3.01 µM | MDA-MB-231 3.22 µM | SF-268 3.88 µM | OVCAR-5 4.15 µM | HL-60 3.31 µM | SK-MEL-5 2.65 µM | SW-620 5.15 µM | BT-549 3.02 µM | TK-10 5.35 µM | MDA-MB-435 3.67 µM | Hs-578T 11.1 µM | RPMI-8226 3.39 µM | HT-29 3.17 µM | HCC 2998 3.59 µM | LOX IMVI 4.91 µM | NCI-H460 3.57 µM

Cc1ccc(N)cc1.O=S(=O)(O)/C(=C\c1ccccc1)c1ccccc1
inactive: SK-MEL-2 > 100 µM | SNB-75 > 100 µM | EKVX > 100 µM | NCI-H226 > 100 µM | MDA-MB-231 > 100 µM | SF-268 > 100 µM | OVCAR-5 > 100 µM | HL-60 53.2 µM | SK-MEL-5 93.3 µM | SW-620 > 100 µM | BT-549 > 100 µM | TK-10 > 100 µM | MDA-MB-435 > 100 µM | Hs-578T > 100 µM | RPMI-8226 > 100 µM | HT-29 > 100 µM | LOX IMVI > 100 µM | NCI-H460 > 100 µM

CN(C)CCCNC(=O)N/N=C/c1ccc([N+](=O)[O-])cc1
inactive: SK-MEL-2 > 100 µM | SNB-75 25.4 µM | NCI-H226 > 100 µM | MDA-MB-231 > 100 µM | SF-268 > 100 µM | OVCAR-5 > 100 µM | HL-60 > 100 µM | SK-MEL-5 > 100 µM | SW-620 > 100 µM | BT-549 > 100 µM | TK-10 > 100 µM | MDA-MB-435 > 100 µM | Hs-578T 46.7 µM | HT-29 > 100 µM | HCC 2998 > 100 µM | NCI-H460 > 100 µM
